According to patent US8138191B2, “Inhibitor compounds and cancer treatment methods” (Critical Outcome Technologies Inc., priority 2007, dated 2012):
Where two headings read alike, the source gives them in different places.

Tests used:
[1] = tested on: SHP-77 human SCLC cell line tumor xenografts; assay: Nude mouse model of human SCLC, SHP-77 xenografts; type: in vivo; conditions: IP on alternate days from Day 3, 31 days
Method: The nude mouse model of human SCLC was used to evaluate the in vivo efficacy of compounds of the present invention in comparison with several known chemotherapeutic agents. Nude mice were obtained form the National Cancer Institute and the SHP-77 human SCLC cell line was chosen for metastatic tumor xenografts. The control group consisted of 10 animals, each of which were administered bilateral thigh injections of a prescribed volume of tumor cells. There were 6 treatment groups, each containing 5 animals: COTI-2, COTI-4, COTI-219, Taxotere® (docetaxel), Cisplatin® (cis-diamminedichloroplatinum) and Tarceva® (erlotinib) The therapeutic agent was administered by intraperitoneal (IP) injection on alternate days beginning on Day 3 post tumor cell injection. Each animal in a treatment group was administered bilateral thigh injections with the same prescribed volume of tumor cells as the control animals. Treatment continued for 31 days, following which the animals were euthanized and tissues were collected for subsequent analysis.

[2] = tested on: DMS153; assay: in vitro IC50 against cancer cell lines, DMS153; type: cell-based; conditions: Homo sapiens, DMS-153, 72 h; DMS153, SCLC, 3 days
Method: Briefly, cells were plated in plastic tissue culture plates and grown under standard conditions for each cell line, in carbon dioxide/oxygen atmosphere in plastic tissue culture plates, in the presence of COTI-2 or COTI-219 compounds at 35° C. for 3 days. Control cultures were treated with vehicle minus compound. Cells were counted after 3 days in culture and at a cell density of no more than 80%. The following cell lines, obtained from the National Cancer Institute, were tested: human SCLC cell lines DMS153, DMS114, SHP77; human NSCLC cell lines H226, A460, A560; human breast cancer cell lines T47D, MCF7; human colon cancer cell line HT29; and, human Leukemia cell lines K562, HL60.

[3] = tested on: H292; assay: CellTiter-Blue growth inhibition, single agents and combinations, H292; type: cell-based; conditions: Homo sapiens, read-out: Mean IC50, single agent
Method: (§1) The stock concentration was further diluted to 1 mM and added to a drug plate. […] Following dilution, 2 μl of test agent was transferred to the corresponding wells of a cell-containing 96-well plate with 198 μl of growth media. Tarceva® (erlotinib) was supplied by LC Labs (Woburn, Mass.).
(§2) Viable cell numbers were quantified by the CellTiter-Blue® cell viability assay, which measures the conversion of the indicator dye (resazurin) to resorufin, an indicator of cell viability. Experiments were repeated at least twice with the same concentrations to determine growth inhibitory activity.
(§3) The CI, a numerical value calculated as described in equation A, also provides a quantitative measure of the extent of drug interaction. A CI of less than, equal to, and more than 1 indicates synergy, additivity, and antagonism, respectively. CI=(CAx/ICx,A)+(CB,x/ICx,B) Equation A: Where CA,x and CB,x, are the concentrations of drug A and drug B used in combination to achieve x % drug effect. ICx,A and ICx,B are the concentrations for single agents to achieve the same effect.

[4] = tested on: HCT-116; assay: CellTiter-Blue growth inhibition, single agents and combinations, HCT-116; type: cell-based; conditions: Homo sapiens, read-out: Mean IC50, single agent
Method: as §1
as §2, with “Cells were grown to 70% confluency, trypsinized, counted, and seeded in 96-well flat-bottom plates at a final concentration of 2.5×10^3−5×10^3 cells/well (Day 0). […] Viable” for “Viable”
as §3

[5] = tested on: SF-295; assay: IC50 human glioma/astrocytoma cell lines (alamar Blue), SF-295
Method: Cell lines were obtained from the Human Tissue Culture Collection (ATCC), grown and maintained under ATCC-specified conditions, and tested to ensure viability and lack of contaminating mycoplasma and common viruses. […] A viability stain (alamar Blue) was added to cells after 4-7 days of drug exposure (approximately 4 doublings of control cells; maximum cell density in wells approximately 80%), and assayed for total cellular metabolic activity (a function of population density of live cells) by absorbance.

[6] = tested on: DMS153; assay: Resistance testing over 5 generations, DMS153; type: cell-based, human; conditions: DMS153, 5 generations
Method: In order to evaluate the induction of resistance in vitro, compounds according to the invention were tested in head to head comparisons against conventional therapeutic agents Cisplatin® and Taxotere®. The compound designated COTI-4 (which is the subject of Applicant's co-pending U.S. provisional patent application entitled “Composition and Method for Treatment” filed Dec. 26, 2007) was also tested. The structure for COTI-4 is:
IC50 values were obtained using methods known to persons skilled in the art with two different human SCLC cell lines (DMS153 and SHP77) obtained from the National Cancer Institute. […] The procedure was repeated for a total of 5 generations. Emerging resistance was identified by increasing IC50 values in successive generations.

[7] = tested on: HCT-15; assay: Tumor cell proliferation, single agents and combinations, HCT-15; type: cell-based; conditions: Homo sapiens
Method: The 3 cell lines were treated as follows:
Day 1: Cells were plated in 96-well flat bottom plates (VWR, Mississauga, ON, Canada) and allowed to adhere overnight.
All treated and control cells were, therefore, exposed to a 1% DMSO concentration plus the desired concentration of COTI-2.
as §3

[8] = tested on: Standard lab mice; assay: Escalating dose acute toxicity study in mice; conditions: 4, 8, 16 mg/kg alternate day IP, 28 days
Source text: Mice were given alternate day IP injections for 28 days. […] Blood and tissue samples were harvested for histopathology.

For `S=C(N/N=C1/CCCc2cccnc21)N1CCN(c2ccccn2)CC1` [COTI-2], the “average number of tumors per injection site” value [1] was 0.28, the mean tumor volume [1] was 9.9 mm^3 and the IC50 [2] was 73 nM. For the same compound, the IC50 ([3]; NCI-H292, 72 h) was 3.9 nM, the IC50 ([4]; HCT-116, 72 h) was 3.6 nM and the IC50 [5] was 184 nM. The “emerging resistance: ratio of IC50 to IC50 of parental generation” value [6] was “less than 1”, the IC50 ([7]; HCT-15, read-out: Mean IC50, single agent) was 8.3 nM and the “acute toxicity / adverse effects” value [8] was “No evidence of acute toxicity”. The weight loss [8] was “None of the drugs produced any weight loss”.

With `CN1CCN(C(=S)NN=C2c3ncccc3-c3cccnc32)CC1` [COTI-219] the “average number of tumors per injection site” value [1] was 0.38, the mean tumor volume [1] was 53+/−28 mm^3 and the IC50 [2] was 233 nM. The IC50 ([3]; NCI-H292, H292, NSCLC, EGFR - WT, 72 h) was 20 nM, the IC50 ([4]; HCT-116, Colon, KRAS - MUT, 72 h) was 8.7 nM and the IC50 [5] was 2390 nM. For the same compound, the “emerging resistance: ratio of IC50 to IC50 of parental generation” value [6] was “little to no emerging resistance”, the IC50 ([7]; HCT-15, Colon, KRAS - MUT, read-out: Mean IC50, single agent) was 5.1 nM and the “acute toxicity / adverse effects” value [8] was “No evidence of acute toxicity”. For the same compound, the weight loss [8] was “None of the drugs produced any weight loss”.
